By IC50 is commonly meant the point on the concentration scale where inhibition reaches its midpoint.

Active and inactive are the calls of the source.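 The calls were made as follows: active = toxic to mouse fibroblast host cells, with IC50 below 50 µM; inactive = the rest.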

This test concerns NIH-3T3 viability, ATP luminescence. The test can be described thus: murine fibroblast viability via ATP level – cell-based, murine fibroblasts, cytotoxicity control for Trypanosoma cruzi inhibitor project (AID 1159561). The conditions noted are these: 4 days.
Turning to `O=[N+]([O-])c1ccc(C2=CC(c3ccccc3)=NCCN2)cc1`, the IC50 is 7.9 µM.

Regarding `N#Cc1c(Oc2cccc(Cl)c2)cccc1[N+](=O)[O-]`, the IC50 is 20 µM.

Regarding `Cn1nccc1-c1cc(OC(CN)c2ccccc2)cnc1-c1ccco1` (stereo unspecified), the IC50 is 20 µM.

For `Cc1cc(N(C)C)nc2ccc(Cc3cnc(N)nc3N)cc12`, the IC50 was 10 µM.

With `COc1cc(-c2nc(N3CCOCC3)sc2-c2ccnc(NC3CCOCC3)n2)ccc1Cl`, the IC50 was > 50 µM (inactive).

Regarding `Cc1ccc(S(=O)(=O)Cn2nnnc2C(c2cccnc2)N2CCN(c3ccccc3)CC2)cc1` (stereo unspecified), the IC50 is 32 µM.

As to `CC(C)Nc1nccc(-c2c(-c3ccc(F)cc3)ncn2C2CCOCC2)n1`, the IC50 is > 50 µM (inactive).

For `CC(=O)Nc1ccc(-c2noc(CC3CCCN(Cc4cccc(F)c4C)C3)n2)cc1` (stereo unspecified), the IC50 is 25 µM.

Consider `Cc1cc(N(C)C)nc(Nc2ccccc2C)n1`, for which the half-inhibitory concentration (IC50) is 40 µM.

With `Cc1[nH]nc2c1C(c1ccc(OCc3ccccc3F)cc1)SCC(=O)N2` (stereo unspecified), the IC50 was > 50 µM (inactive).

Consider `N#Cc1ccc(S(=O)(=O)N2CCN(Cc3cccc(-c4ccncc4)c3)CC2)cc1`, for which the IC50 was 13 µM.

For `CC(C)c1cc(C(=O)N2CCCC(c3cc4ncccc4[nH]3)C2)on1` (stereo unspecified), the IC50 was 20 µM.

As for `O=C1CCCCCC1(Cc1cnc[nH]1)c1ccc(Cl)cc1Cl` (stereo unspecified), the IC50 is 20 µM.

In the case of `CCCN(Cc1ccc(OC)c(OC)c1)Cc1cc(=O)c2c(C)cc(C)cc2[nH]1`, the IC50 is 32 µM.

With `Cc1cc(C)c(C#N)c(SCC(=O)c2ccc3c(c2)OCO3)n1`, the IC50 was > 50 µM (inactive).

As for `Clc1cc(Br)ccc1OCCCCn1ccnc1`, the IC50 was 16 µM.

Take `O=C(NCCc1cccnc1)c1csc(-c2ccccc2)n1`: the IC50 was 50 µM.

On to `COc1ccc(NS(=O)(=O)c2cc(NC(=O)c3ccc([N+](=O)[O-])s3)ccc2OC)cc1`, for which the IC50 is > 50 µM (inactive).

`CCN(C)Cc1ccc(N2CCC(NS(=O)(=O)c3ccc4c(c3)CCO4)CC2)nc1`: the IC50 was 13 µM.

Turning to `Fc1ccc(OC2CC(NCc3cccc4cn[nH]c34)C2)cc1C(F)(F)F` (stereo unspecified), the IC50 is 13 µM.

For the molecule `COc1ccc(-c2cc(C)no2)cc1S(=O)(=O)Nc1ccc(F)c(Cl)c1`, the IC50 is 25 µM.

Consider `O=C(Nc1ncc([N+](=O)[O-])s1)C1CC1`, for which the IC50 is 32 µM.

Regarding `COc1cc(NC(=O)Nc2cccc(CNC(=O)OC3CCCCC3)c2)ccc1-c1cnco1`, the IC50 is 10 µM.

With `CC(C)Oc1ccc(C(=O)Nc2ccc(N3CCOCC3)c(Cl)c2)cc1`, the IC50 was 10 µM.

As for `O=C(CCCn1cnc([N+](=O)[O-])n1)Nc1cccc(Cl)c1`, the IC50 is > 50 µM (inactive).

Consider `Cc1cc(C#N)c([N+](=O)[O-])cc1Br`, for which the IC50 is 20 µM.

`COc1cccc(CCNC(=O)C(c2cn[nH]c2)N2CCN(c3ccc(Cl)cc3)CC2)c1` (stereo unspecified): the IC50 is 32 µM.

As for `CNc1c(C(N)=O)c(-c2ccc3scnc3c2)nn1CC(F)(F)F`, the IC50 is 20 µM.

`CC1(C)CCC(=Cc2ccc(Cl)cc2)CC1(O)Cn1ccnc1` (stereo unspecified): the IC50 was 16 µM.

In the case of `CCOc1ccc(NC(=O)C=Cc2ccc(CC)o2)cc1`, the IC50 is 32 µM.

Turning to `O=C(Nc1cccc(Cl)c1)N1CCCCC1c1cccnc1` (stereo unspecified), the IC50 was 32 µM.

Regarding `Cn1nc([N+](=O)[O-])nc1Oc1ccc(C(=O)c2ccccc2)cc1`, the IC50 is > 50 µM (inactive).

`CC1=C(C(=O)Nc2ccc(Cl)cc2)C(c2ccncc2)n2ncc(C(=O)Nc3ccccc3)c2N1` (stereo unspecified): the IC50 was 32 µM.

As for `O=C(NCc1ccncc1)c1ccccc1N1CCCN(C(=O)Cc2ccc(F)c(F)c2)CC1`, the concentration for half-maximal inhibition (IC50) was 16 µM.

As to `O=C(CSc1ccc(-c2ccccn2)nn1)Nc1ccc(Cl)cc1`, the IC50 was 32 µM.

As for `Cc1nccn1C1CCCN(C(=O)c2cc3c(F)cccc3s2)C1` (stereo unspecified), the concentration for half-maximal inhibition (IC50) is 20 µM.

As for `CCn1nccc1CN(C)C(=O)C=Cc1ccc(Cl)cc1`, the IC50 is > 50 µM (inactive).

For the molecule `N#Cc1nc(C=Cc2ccccc2)oc1NCc1cccnc1`, the IC50 was 13 µM.

`COc1ccc(NS(=O)(=O)c2cc(NC(=O)Cc3ccc(C)cc3)ccc2N2CCOCC2)cc1`: the IC50 was 25 µM.

For the molecule `O=C(c1cccc(Cl)c1Cl)N1CCn2c1nc(-c1ccncc1)cc2=O`, the IC50 is 20 µM.

In the case of `O=c1cc(NCCCNC2CCOc3c(I)cc(Cl)cc32)[nH]c2ccccc12` (stereo unspecified), the IC50 was 25 µM.

Turning to `c1cncc(CN(Cc2ccco2)Cc2cn[nH]c2-c2cccs2)c1`, the concentration for half-maximal inhibition (IC50) was 32 µM.

`Cc1ccc(C)c(-n2nnnc2Sc2nc([N+](=O)[O-])nn2C)c1`: the IC50 is > 50 µM (inactive).

For `N#Cc1ccc(S(=O)(=O)N2CCC3(CCN(c4ccccc4)C3=O)CC2)cc1`, the IC50 is > 50 µM (inactive).

For `CN(C)c1ncc(-c2cncn2CCOc2ccc(Cl)cc2)cn1`, the IC50 was 40 µM.

Turning to `N#Cc1cc([N+](=O)[O-])ccc1NC1CCCCCC1`, the IC50 is > 50 µM (inactive).

Regarding `Cn1cncc1CN1CCC2(CC1)COC(Cc1ccccc1)C2` (stereo unspecified), the IC50 is 25 µM.

`O=C(c1cnn(-c2ccccc2)n1)N1CCCC(n2ccnc2)C1` (stereo unspecified): the IC50 was 20 µM.

Regarding `CN(Cc1ccc(F)cc1)c1ccc(OCC(=O)N2CCCCC2c2cccnc2)nn1` (stereo unspecified), the IC50 is 10 µM.

`O=C(Nc1ccc(C(=O)N2CCCC2c2ccc3c(c2)OCCCO3)cc1)c1ccco1` (stereo unspecified): the IC50 was > 50 µM (inactive).

Regarding `CNc1cc(Cn2c(C(=O)c3cc(C)cc(Cl)c3)c(C(C)C)c(=O)[nH]c2=O)ccn1`, the IC50 was 10 µM.

As for `O=C(NC(c1ccc(Cl)cc1)c1cnccn1)C1CCN(C(=O)Nc2cccc(C(F)(F)F)c2)CC1` (stereo unspecified), the IC50 is 40 µM.

As to `Cc1cc(Br)cc(C(=O)c2c(C(C)C)c(=O)[nH]c(=O)n2Cc2ccnc(N)c2)c1`, the IC50 was 16 µM.

Turning to `O=C(Nc1nc(-c2ccc(S(=O)(=O)N3CCOCC3)cc2)cs1)c1ccc([N+](=O)[O-])cc1`, the IC50 was 25 µM.

`Nc1ncnc2c1ncn2[C@@H]1O[C@H](CO)C[C@H]1O`: the IC50 is > 50 µM (inactive).

`CCN(CC)S(=O)(=O)c1ccc(C(=O)Nc2cc(C)nn2-c2nc(C)c(C)c(=O)[nH]2)cc1`: the IC50 is > 50 µM (inactive).

For the molecule `CN(Cc1cccnc1)Cc1ccc(N2CCN(C(=O)C3(c4ccc(Cl)cc4)CC3)CC2)nc1`, the IC50 was 7.9 µM.

As for `O=C(NCc1ccc(-n2cccc2)cc1)c1nc(Cn2ccc([N+](=O)[O-])n2)no1`, the IC50 was 50 µM.

As to `O=C(NCC(c1cccnc1)N1CCc2ccccc2C1)C(=O)Nc1cccc(Cl)c1` (stereo unspecified), the IC50 was 25 µM.

As for `Cn1cc(CN2CCN(c3ccc4c(c3)CCN(C(=O)[C@H]3C[C@@H]3c3ccccc3)CC4)CC2)cn1`, the IC50 was 20 µM.

Regarding `CCC(=O)Nc1ccc(-c2nc3ccc(Cl)cc3[nH]2)cc1`, the IC50 was > 50 µM (inactive).

On to `CN(C)CCOc1ccc(N2CCN(S(=O)(=O)c3ccc(Cl)cc3)CC2)cc1`, for which the IC50 was 16 µM.

`CC(CNS(=O)(=O)c1ccc(OC(F)F)cc1)c1ccc(NC(=O)c2ccncc2)cc1` (stereo unspecified): the IC50 was > 50 µM (inactive).

`CCCN1CCN(Cc2ccc(S(=O)(=O)Nc3cccc(C)c3)cc2)CC1`: the IC50 is 25 µM.

`Cn1nc([N+](=O)[O-])nc1N1CCCCC1`: the IC50 is > 50 µM (inactive).

Regarding `CC1CN(S(=O)(=O)c2ccc(NC(=O)c3cc(C4CC4)nc4c3cnn4C(C)C)cc2)CC(C)O1` (stereo unspecified), the IC50 is > 50 µM (inactive).

Source of the values: PubChem BioAssay AID1159561 (GlaxoSmithKline (GSK), 2015).
